Organism: Rattus norvegicus
Assay: Open TG-GATES - Regimen: Single
Assay type: toxicity, organism-based, Sprague-Dawley
Set-up: regimen Single, gender Male, age 6 weeks
Details: in vivo, po, 0 mg/kg, route gavage, dose level Control; for APTT / Bas / Eos / Fbg / Hb / Ht / Lym / MCHC / MCV / Mono / PT / Plat / RBC / Ret / WBC: tissue Blood; for KIDNEY_L / KIDNEY_R / KIDNEY_TOTAL: tissue Kidney; for LIVER: tissue Liver; for ALP / ALT / AST / BUN / CRE / DBIL / GLC / K / LDH / Na / PL / RALB / TBIL / TC / TG / TP / gamma-GTP: tissue Plasma

`O=C1NC(=O)C(c2ccccc2)(c2ccccc2)N1` [PHENYTOIN] was tested, and the TERMINAL_BW (3 h) was 209.3 g, the APTT (3 h) was 16.8 s and the Bas (3 h) was 0.4%. The Eos (3 h) was 0.8%, the Fbg (3 h) was 267 mg/dL and the Hb (3 h) was 13.4 g/dL. The Ht (3 h) was 40.2%, the Lym (3 h) was 78.6% and the MCHC (3 h) was 33.3%. For the same compound, the MCV (3 h) was 62.2 fL, the Mono (3 h) was 3% and the PT (3 h) was 13.9 s. For the same compound, the Plat (3 h) was 116.9 x10_4/uL, the RBC (3 h) was 646.8 x10_4/ul and the Ret (3 h) was 8.3%. It also gave a WBC (3 h) of 81.2 x10_2/uL, a KIDNEY_L (3 h) of 0.9 g and a KIDNEY_R (3 h) of 0.9 g. The KIDNEY_TOTAL (3 h) was 1.9 g, the LIVER (3 h) was 9.6 g and the ALP (3 h) was 1709.4 IU/L. It also gave an ALT (3 h) of 37 IU/L, an AST (3 h) of 75.6 IU/L and a BUN (3 h) of 9.8 mg/dL. The CRE (3 h) was 0.2 mg/dL, the DBIL (3 h) was 0.018 mg/dL and the GLC (3 h) was 177.4 mg/dL. The K (3 h) was 4.1 meq/L, the LDH (3 h) was 127.8 IU/L and the Na (3 h) was 141.6 meq/L. The PL (3 h) was 145.2 mg/dL, the RALB (3 h) was 2.5 g/dL and the TBIL (3 h) was 0.056 mg/dL. The TC (3 h) was 75.8 mg/dL, the TG (3 h) was 61.4 mg/dL and the TP (3 h) was 5.4 g/dL. It also gave a gamma-GTP (3 h) of 1.2 IU/L, a TERMINAL_BW (6 h) of 207.9 g and an APTT (6 h) of 16.8 s. For the same compound, the Bas (6 h) was 0.6%, the Eos (6 h) was 0.8% and the Fbg (6 h) was 297.4 mg/dL. For the same compound, the Hb (6 h) was 13.3 g/dL, the Ht (6 h) was 39.4% and the Lym (6 h) was 79.4%. The MCHC (6 h) was 33.6%, the MCV (6 h) was 61.5 fL and the Mono (6 h) was 3%. For the same compound, the PT (6 h) was 14.1 s, the Plat (6 h) was 121.6 x10_4/uL and the RBC (6 h) was 641.4 x10_4/ul. It also gave a Ret (6 h) of 7.5%, a WBC (6 h) of 97.9 x10_2/uL and a KIDNEY_L (6 h) of 0.9 g. It also gave a KIDNEY_R (6 h) of 0.9 g, a KIDNEY_TOTAL (6 h) of 1.8 g and an LIVER (6 h) of 8.5 g. For the same compound, the ALP (6 h) was 1520.6 IU/L, the ALT (6 h) was 34.4 IU/L and the AST (6 h) was 67.6 IU/L. It also gave a BUN (6 h) of 8.6 mg/dL, a CRE (6 h) of 0.2 mg/dL and a DBIL (6 h) of 0.018 mg/dL. The GLC (6 h) was 184.2 mg/dL, the K (6 h) was 4.3 meq/L and the LDH (6 h) was 96.2 IU/L. For the same compound, the Na (6 h) was 142.2 meq/L, the PL (6 h) was 139.6 mg/dL and the RALB (6 h) was 2.5 g/dL. For the same compound, the TBIL (6 h) was 0.05 mg/dL, the TC (6 h) was 77.8 mg/dL and the TG (6 h) was 44.2 mg/dL. It also gave a TP (6 h) of 5.4 g/dL, a gamma-GTP (6 h) of 1.4 IU/L and a TERMINAL_BW (9 h) of 205.9 g. For the same compound, the APTT (9 h) was 15.5 s, the Bas (9 h) was 0.6% and the Eos (9 h) was 0.8%. For the same compound, the Fbg (9 h) was 295.6 mg/dL, the Hb (9 h) was 13.5 g/dL and the Ht (9 h) was 40.5%. It also gave a Lym (9 h) of 76.2%, an MCHC (9 h) of 33.4% and an MCV (9 h) of 61.1 fL. It also gave a Mono (9 h) of 2.6%, a PT (9 h) of 13.8 s and a Plat (9 h) of 126 x10_4/uL. For the same compound, the RBC (9 h) was 663.4 x10_4/ul, the Ret (9 h) was 7.6% and the WBC (9 h) was 79.7 x10_2/uL. For the same compound, the KIDNEY_L (9 h) was 0.9 g, the KIDNEY_R (9 h) was 0.9 g and the KIDNEY_TOTAL (9 h) was 1.8 g. It also gave an LIVER (9 h) of 8.7 g, an ALP (9 h) of 1437.2 IU/L and an ALT (9 h) of 29.8 IU/L. For the same compound, the AST (9 h) was 68.8 IU/L, the BUN (9 h) was 9.8 mg/dL and the CRE (9 h) was 0.2 mg/dL. It also gave a DBIL (9 h) of 0.014 mg/dL, a GLC (9 h) of 177.4 mg/dL and a K (9 h) of 4.2 meq/L. The LDH (9 h) was 93.4 IU/L, the Na (9 h) was 142.4 meq/L and the PL (9 h) was 131.6 mg/dL. For the same compound, the RALB (9 h) was 2.5 g/dL, the TBIL (9 h) was 0.052 mg/dL and the TC (9 h) was 72.4 mg/dL. The TG (9 h) was 40 mg/dL, the TP (9 h) was 5.5 g/dL and the gamma-GTP (9 h) was 1.6 IU/L. For the same compound, the TERMINAL_BW (24 h) was 224.3 g, the APTT (24 h) was 17.7 s and the Bas (24 h) was 0.4%. It also gave an Eos (24 h) of 1%, a Fbg (24 h) of 273.4 mg/dL and a Hb (24 h) of 13.2 g/dL. It also gave a Ht (24 h) of 39.1%, a Lym (24 h) of 79.8% and an MCHC (24 h) of 33.7%. For the same compound, the MCV (24 h) was 62.6 fL, the Mono (24 h) was 2.2% and the PT (24 h) was 14.4 s. For the same compound, the Plat (24 h) was 121.9 x10_4/uL, the RBC (24 h) was 625.6 x10_4/ul and the Ret (24 h) was 7.8%. For the same compound, the WBC (24 h) was 108.2 x10_2/uL, the KIDNEY_L (24 h) was 1 g and the KIDNEY_R (24 h) was 1 g. The KIDNEY_TOTAL (24 h) was 2.1 g, the LIVER (24 h) was 10.6 g and the ALP (24 h) was 1864.2 IU/L. It also gave an ALT (24 h) of 42.4 IU/L, an AST (24 h) of 75.2 IU/L and a BUN (24 h) of 14.8 mg/dL. It also gave a CRE (24 h) of 0.2 mg/dL, a DBIL (24 h) of 0.024 mg/dL and a GLC (24 h) of 187.6 mg/dL. The K (24 h) was 4 meq/L, the LDH (24 h) was 95.6 IU/L and the Na (24 h) was 142.6 meq/L. It also gave a PL (24 h) of 152 mg/dL, an RALB (24 h) of 2.6 g/dL and a TBIL (24 h) of 0.042 mg/dL. The TC (24 h) was 74.8 mg/dL and the TG (24 h) was 100.2 mg/dL.

Source: ChEMBL document CHEMBL3885861, “Open TG-GATES”
